Ten molecules from ChEMBL document CHEMBL1140442, “Potent cannabinergic indole analogues as radioiodinatable brain imaging agents for the CB1 cannabinoid receptor” (J Med Chem, 2005) can be followed below.

One assay concerns the target Cannabinoid receptor 2 (Mus musculus, UniProt P47936). Description: Binding affinity towards mouse spleen cannabinoid receptor 2 using [3H]CP-55940. It is filed as tissue-based.
Assay [1] has as its target Cannabinoid receptor 1 (Rattus norvegicus, UniProt P20272). Description: Binding affinity towards rat forebrain cannabinoid receptor 1 using [3H]CP-55940.
The target of assay [2] is T1, Cannabinoid receptor 1 (Mus musculus, UniProt P47746). Description: Binding affinity towards mouse hippocampal membranes cannabinoid receptor 1 using [3H]SR-141,716A.
The target of assay [3] is T1, Cannabinoid receptor 1. Description: Binding affinity towards mouse hippocampal membranes cannabinoid receptor 1 using [131I]-(R)-8.

pKi: −log10 of the molar value.

Cannabinoid receptor 1 (Rattus norvegicus, UniProt P20272), sequence (P20272 whole entry): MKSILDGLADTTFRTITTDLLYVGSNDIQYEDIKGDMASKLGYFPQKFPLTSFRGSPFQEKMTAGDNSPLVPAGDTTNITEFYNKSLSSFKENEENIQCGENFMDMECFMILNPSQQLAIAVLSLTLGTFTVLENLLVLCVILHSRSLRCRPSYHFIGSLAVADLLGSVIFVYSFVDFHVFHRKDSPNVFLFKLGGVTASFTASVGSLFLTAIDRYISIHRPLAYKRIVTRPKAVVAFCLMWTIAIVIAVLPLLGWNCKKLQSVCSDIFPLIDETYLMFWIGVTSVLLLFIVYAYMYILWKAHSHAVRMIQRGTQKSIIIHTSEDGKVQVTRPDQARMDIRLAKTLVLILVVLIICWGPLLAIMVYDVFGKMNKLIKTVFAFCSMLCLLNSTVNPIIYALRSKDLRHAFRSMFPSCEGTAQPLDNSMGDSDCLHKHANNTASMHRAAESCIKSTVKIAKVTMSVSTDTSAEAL
Cannabinoid receptor 2, sequence (P47936 whole entry): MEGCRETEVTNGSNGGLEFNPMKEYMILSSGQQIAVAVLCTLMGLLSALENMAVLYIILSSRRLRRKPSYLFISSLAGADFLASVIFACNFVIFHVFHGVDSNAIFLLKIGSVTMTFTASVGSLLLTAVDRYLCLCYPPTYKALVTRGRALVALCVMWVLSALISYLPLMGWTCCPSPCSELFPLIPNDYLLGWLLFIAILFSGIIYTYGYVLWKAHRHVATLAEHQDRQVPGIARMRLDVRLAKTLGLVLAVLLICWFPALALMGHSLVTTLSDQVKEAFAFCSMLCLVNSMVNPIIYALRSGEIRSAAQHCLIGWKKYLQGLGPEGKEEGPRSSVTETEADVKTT
T1 sequence (P47746 whole entry): as the sequence (P20272 whole entry) above, with E95D counted along it

Take `Cc1c(C(=O)c2ccccc2I)c2ccccc2n1CC1CCCCN1C` (single isomer, unassigned; (-)): the pKi (in general, the negative decadic logarithm of the Ki, by convention in mol/L) was 7.08 at Cannabinoid receptor 2 and 5.92 at Cannabinoid receptor 1 [1].

As for `CN1CCCCC1Cn1cc(C(=O)c2cccc3ccccc23)c2ccccc21` (configuration not stated), the values for the pKi at Cannabinoid receptor 2 and at Cannabinoid receptor 1 [1] were 8.72 and 9.12, respectively.

Take `CN1CCCC[C@H]1Cn1cc(C(=O)c2ccccc2I)c2ccccc21`: on Cannabinoid receptor 1 [1], the pKi is 6.25.

In the case of `CN1CCCCC1Cn1cc(C(=O)c2cccc3ccccc23)c2ccc(I)cc21` (configuration not stated), the results for the pKi on Cannabinoid receptor 2 and at Cannabinoid receptor 1 [1] were 8.01 and 7.74, respectively.

As for `CN1CCCCC1Cn1cc(C(=O)c2ccc(I)c3ccccc23)c2ccccc21` (configuration not stated), on Cannabinoid receptor 2, the pKi was 8.28.

In the case of `Cc1c(C(=O)c2cccc(I)c2)c2ccccc2n1CC1CCCCN1C` (configuration not stated), the pKi at Cannabinoid receptor 2 was 5.02; at Cannabinoid receptor 1 [1], 5.54.

Regarding `CN1CCCCC1Cn1cc(C(=O)c2ccccc2I)c2ccccc21` (configuration not stated), the pKi at Cannabinoid receptor 1 [2] was 8.89; on Cannabinoid receptor 1 [3], 9.70.

With `Cc1c(C(=O)c2ccc(I)cc2)c2ccccc2n1CC1CCCCN1C` (configuration not stated), at Cannabinoid receptor 2, the pKi is 6.10.

`Cc1c(C(=O)c2ccccc2I)c2ccccc2n1CC1CCCCN1C` (stereo in doubt; 5): the negative-log Ki (pKi) at Cannabinoid receptor 2 and on Cannabinoid receptor 1 [1] was 7.47 in each case.

Turning to `Cc1c(C(=O)c2ccccc2I)c2ccccc2n1CC1CCCCN1C` (single isomer, unassigned; (+)), the pKi on Cannabinoid receptor 2 was 8.00; at Cannabinoid receptor 1 [1], 8.17.
